Results as given in publication PMC6199744, “Development of Chemical Proteomics for the Folateome and Analysis of the Kinetoplastid Folateome” (ACS Infectious Diseases, 2018).
Where two headings read alike, the source gives them in different places.

Legend:
Assay type in all cases: binding
[1] = target: T1, HeLa cell extract proteins (Homo sapiens, UniProt P00338)
T1 construct: endogenous in cells; host or cells: HeLa cell extract

[2] = target: T2, HeLa cell extract proteins (Homo sapiens, UniProt P00558)
T2 construct: endogenous in cells; host or cells: HeLa cell extract
T2 sequence (P00558 1-417): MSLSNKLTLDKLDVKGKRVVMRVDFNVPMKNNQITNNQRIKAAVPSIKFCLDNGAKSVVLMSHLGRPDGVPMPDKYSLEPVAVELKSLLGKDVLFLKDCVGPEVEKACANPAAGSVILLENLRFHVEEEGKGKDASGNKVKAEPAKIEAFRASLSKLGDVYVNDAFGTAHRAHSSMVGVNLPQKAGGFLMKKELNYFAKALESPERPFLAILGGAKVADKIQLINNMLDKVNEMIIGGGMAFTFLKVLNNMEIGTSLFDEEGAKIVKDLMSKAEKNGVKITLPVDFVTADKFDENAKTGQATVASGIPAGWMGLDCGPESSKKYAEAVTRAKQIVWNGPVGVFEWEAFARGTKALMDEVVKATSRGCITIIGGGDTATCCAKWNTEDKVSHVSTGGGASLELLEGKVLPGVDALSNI

[3] = target: T3, HeLa cell extract proteins (Homo sapiens, UniProt P05023)
T3 construct: endogenous in cells; host or cells: HeLa cell extract

[4] = target: T4, HeLa cell extract proteins (Homo sapiens, UniProt P07686)
T4 construct: endogenous in cells; host or cells: HeLa cell extract
T4 sequence (P07686 122-556): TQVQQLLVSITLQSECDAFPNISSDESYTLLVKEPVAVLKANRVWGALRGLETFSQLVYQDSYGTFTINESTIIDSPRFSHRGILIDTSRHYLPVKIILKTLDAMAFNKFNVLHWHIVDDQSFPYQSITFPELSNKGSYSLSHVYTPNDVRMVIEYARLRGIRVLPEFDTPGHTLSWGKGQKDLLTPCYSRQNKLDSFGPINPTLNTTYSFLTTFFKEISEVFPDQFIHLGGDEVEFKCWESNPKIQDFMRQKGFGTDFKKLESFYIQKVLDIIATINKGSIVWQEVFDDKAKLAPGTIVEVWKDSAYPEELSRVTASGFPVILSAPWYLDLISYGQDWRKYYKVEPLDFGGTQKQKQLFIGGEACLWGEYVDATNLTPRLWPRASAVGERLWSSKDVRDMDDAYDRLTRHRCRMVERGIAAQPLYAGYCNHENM

[5] = target: T5, HeLa cell extract proteins (Homo sapiens, UniProt P43362)
T5 construct: endogenous in cells; host or cells: HeLa cell extract
T5 sequence (P43362 1-315): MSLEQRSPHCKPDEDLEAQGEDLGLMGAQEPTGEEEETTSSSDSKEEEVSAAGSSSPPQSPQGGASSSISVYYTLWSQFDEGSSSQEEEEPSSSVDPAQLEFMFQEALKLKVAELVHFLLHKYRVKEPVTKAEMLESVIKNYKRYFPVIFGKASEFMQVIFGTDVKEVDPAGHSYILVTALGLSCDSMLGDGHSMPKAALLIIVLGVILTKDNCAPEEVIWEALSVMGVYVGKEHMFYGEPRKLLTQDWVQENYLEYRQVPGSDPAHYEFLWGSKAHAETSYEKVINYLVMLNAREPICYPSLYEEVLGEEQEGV

[6] = target: T6, HeLa cell extract proteins (Homo sapiens, UniProt Q12931)
T6 construct: endogenous in cells; host or cells: HeLa cell extract
T6 sequence (Q12931 60-704): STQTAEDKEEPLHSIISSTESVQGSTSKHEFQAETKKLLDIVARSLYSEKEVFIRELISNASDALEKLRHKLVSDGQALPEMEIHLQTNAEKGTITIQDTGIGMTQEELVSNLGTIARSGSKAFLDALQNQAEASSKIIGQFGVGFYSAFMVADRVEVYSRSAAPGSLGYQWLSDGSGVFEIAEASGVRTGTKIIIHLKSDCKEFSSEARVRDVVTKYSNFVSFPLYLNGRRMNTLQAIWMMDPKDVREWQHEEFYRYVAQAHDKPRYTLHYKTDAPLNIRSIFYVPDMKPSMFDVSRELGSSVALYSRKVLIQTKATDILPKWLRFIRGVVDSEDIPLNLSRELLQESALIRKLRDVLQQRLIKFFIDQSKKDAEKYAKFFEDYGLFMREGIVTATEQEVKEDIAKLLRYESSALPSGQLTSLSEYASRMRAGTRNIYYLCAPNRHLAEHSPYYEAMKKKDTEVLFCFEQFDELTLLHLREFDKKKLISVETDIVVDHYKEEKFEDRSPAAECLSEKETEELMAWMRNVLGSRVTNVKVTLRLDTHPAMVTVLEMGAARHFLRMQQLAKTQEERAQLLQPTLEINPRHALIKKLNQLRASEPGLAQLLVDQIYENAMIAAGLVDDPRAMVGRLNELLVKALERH

[7] = target: T7, HeLa cell extract proteins (Homo sapiens, UniProt Q6YN16)
T7 construct: endogenous in cells; host or cells: HeLa cell extract
T7 sequence (Q6YN16 1-418): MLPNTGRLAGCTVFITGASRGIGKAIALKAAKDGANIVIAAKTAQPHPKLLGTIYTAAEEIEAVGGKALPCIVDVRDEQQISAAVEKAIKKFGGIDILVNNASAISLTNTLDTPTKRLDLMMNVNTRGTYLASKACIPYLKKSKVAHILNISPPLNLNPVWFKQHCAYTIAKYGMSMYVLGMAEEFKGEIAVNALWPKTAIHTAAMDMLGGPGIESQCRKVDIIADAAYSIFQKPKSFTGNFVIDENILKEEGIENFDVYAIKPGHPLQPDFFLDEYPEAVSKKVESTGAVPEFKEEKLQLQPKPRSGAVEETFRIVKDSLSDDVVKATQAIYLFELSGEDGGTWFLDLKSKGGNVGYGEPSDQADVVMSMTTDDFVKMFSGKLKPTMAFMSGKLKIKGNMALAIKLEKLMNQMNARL

[8] = target: T8, HeLa cell extract proteins (Homo sapiens, UniProt Q9Y3F4)
T8 construct: endogenous in cells; host or cells: HeLa cell extract
T8 sequence (Q9Y3F4 1-350): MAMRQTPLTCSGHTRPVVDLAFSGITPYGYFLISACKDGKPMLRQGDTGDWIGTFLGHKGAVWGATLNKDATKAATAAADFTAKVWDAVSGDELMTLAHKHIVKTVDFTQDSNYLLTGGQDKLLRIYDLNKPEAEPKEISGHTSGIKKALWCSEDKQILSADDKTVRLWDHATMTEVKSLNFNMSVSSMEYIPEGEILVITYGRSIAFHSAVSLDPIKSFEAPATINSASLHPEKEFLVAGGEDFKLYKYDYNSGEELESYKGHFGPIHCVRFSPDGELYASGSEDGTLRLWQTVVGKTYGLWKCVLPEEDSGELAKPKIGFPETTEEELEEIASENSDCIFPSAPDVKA

[9] = HeLa, protein LDHA (ISOFORM 1 OF L-LACTATE DEHYDROGENASE A CHAIN.)
[10] = HeLa, protein PGK1 (PHOSPHOGLYCERATE KINASE 1.)

| SMILES | fold changes relative to vehicle control ([1]; HeLa, protein LDHA) | fold changes relative to vehicle control ([2]; HeLa, protein PGK1) | fold changes relative to vehicle control ([3]; protein ATP1A1, HeLa) | fold changes relative to vehicle control ([4]; HeLa, protein HEXB) | fold changes relative to vehicle control ([5]; HeLa, protein MAGEA9) | fold changes relative to vehicle control ([6]; protein TRAP1, HeLa) | fold changes relative to vehicle control ([7]; HeLa, protein HSDL2) | fold changes relative to vehicle control ([8]; protein STRAP, HeLa) | fold changes relative to vehicle control ([5]; protein MAGEA9, HeLa) | fold changes relative to vehicle control ([7]; protein HSDL2, HeLa) | also measured |
| --- | --- | --- | --- | --- | --- | --- | --- | --- | --- | --- | --- |
| Nc1nc2c(c(=O)[nH]1)N(C=O)C(CNc1ccc(C(=O)N[C@@H](CCC(=O)O)C(=O)O)cc1)CN2 (some centres unmarked) [LEU, leucovorin] | 1.07 | 1.1 | 0.76 | 0.97 | 0.95 | 0.95 | 0.96 | 0.85 |  |  |  |
| Nc1nc2[nH]cc(CCc3ccc(C(=O)N[C@@H](CCC(=O)O)C(=O)O)cc3)c2c(=O)[nH]1 [PTX, pemetrexed] |  |  |  |  |  |  |  |  |  |  | fold changes relative to vehicle control [1]: 1.15; fold changes relative to vehicle control [2]: 1.11; fold changes relative to vehicle control [3]: 0.96; fold changes relative to vehicle control [4]: 1; fold changes relative to vehicle control [5]: 0.82; fold changes relative to vehicle control [6]: 1.02; fold changes relative to vehicle control [7]: 0.96; fold changes relative to vehicle control [8]: 1 |
| CCCCCCOc1ccc(Cc2cnc(N)nc2N)cc1 [compound 1] |  |  | 0.73 | 1.04 |  | 1.27 |  | 1.07 | 0.78 | 1.11 | fold changes relative to vehicle control [1, 9]: 1.48 fold; fold changes relative to vehicle control [2, 10]: 1.5 fold |
| CCCCCCOc1cccc(Cc2cnc(N)nc2N)c1 [compound 2] |  |  | 1.25 | 1.06 |  | 1.77 |  | 1.28 | 1.24 | 1.23 | fold changes relative to vehicle control [1, 9]: 2.61 fold; fold changes relative to vehicle control [2, 10]: 2.59 fold |
| Nc1nc2cccc(-c3ccccc3)c2n1Cc1ccc(Cl)c(Cl)c1 [compound 3] |  |  | 0.94 | 0.93 |  | 1.06 |  | 1.11 | 0.92 | 0.96 | fold changes relative to vehicle control ([1]; HeLa, protein LDHA (ISOFORM 1 OF L-LACTATE DEH[…] CHAIN.)): 0.92 fold; fold changes relative to vehicle control ([2]; HeLa, protein PGK1 (PHOSPH[…] 1.)): 0.8 fold |
| NCCOCCOCC(=O)Nc1nc2ncc(CNc3ccc(C(=O)NC(CCC(=O)O)C(=O)O)cc3)nc2c(=O)[nH]1 (centres unmarked) [compound 6] | 1.23 | 1.28 | 1.05 | 1.05 | 1.04 | 1.2 | 1.04 | 1.08 |  |  |  |
| NCCCNc1ccc(C(=O)NC(CCC(=O)O)C(=O)O)cc1 (centres unmarked) [compound 7] | 0.95 | 0.92 | 0.92 | 1.06 | 1 | 1.01 | 1.02 | 0.86 |  |  |  |
